Drawing on ChEMBL document CHEMBL1129894, “Dihydroxypyrrolidines C-linked to galactose. Total synthesis of a specific inhibitor of -mannosidases” (Bioorg Med Chem Lett, 1997), this text covers inhibition for two molecules.

Calls of active or inactive are those of the source. The rule behind the calls is not given here.

One test concerns jack. As to the kind of experiment: Inhibition of the enzyme beta-N-acetylglucosaminidase from jack beans was determined at 1 mM concentration of the compound; No inhibition.
Test [1] is described as follows: Inhibition of the enzyme beta-galactosidase from Aspergillus oryzae was determined at 1 mM concentration of the compound; No inhibition.
Test [2] deals with T1, Beta-galactosidase (Bos taurus) (UniProt Q58D55).
T1 sequence (whole entry): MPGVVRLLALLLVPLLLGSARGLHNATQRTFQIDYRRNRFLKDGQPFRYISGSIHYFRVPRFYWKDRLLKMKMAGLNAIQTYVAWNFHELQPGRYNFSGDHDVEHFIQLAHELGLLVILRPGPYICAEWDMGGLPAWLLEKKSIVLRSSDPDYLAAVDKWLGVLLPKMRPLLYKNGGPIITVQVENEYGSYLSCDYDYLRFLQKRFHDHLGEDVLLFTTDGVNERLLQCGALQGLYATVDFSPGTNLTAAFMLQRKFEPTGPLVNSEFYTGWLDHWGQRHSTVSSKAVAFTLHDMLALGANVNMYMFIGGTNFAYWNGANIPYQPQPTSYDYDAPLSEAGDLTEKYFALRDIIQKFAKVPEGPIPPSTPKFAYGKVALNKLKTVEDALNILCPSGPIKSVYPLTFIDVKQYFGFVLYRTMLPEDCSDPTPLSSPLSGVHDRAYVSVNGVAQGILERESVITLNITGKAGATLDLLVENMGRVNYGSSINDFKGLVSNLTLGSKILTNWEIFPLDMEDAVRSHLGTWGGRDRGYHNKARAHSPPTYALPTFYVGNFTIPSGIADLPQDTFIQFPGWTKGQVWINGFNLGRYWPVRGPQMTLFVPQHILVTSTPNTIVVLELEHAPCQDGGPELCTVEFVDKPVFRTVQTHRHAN
As to the kind of experiment: Inhibition of the enzyme beta-galactosidase from bovine liver was determined at 1 mM concentration of the compound; No inhibition.

Test [3] concerns the target T2, Alpha-N-acetylgalactosaminidase (Homo sapiens) (UniProt P17050).
T2 sequence (whole entry): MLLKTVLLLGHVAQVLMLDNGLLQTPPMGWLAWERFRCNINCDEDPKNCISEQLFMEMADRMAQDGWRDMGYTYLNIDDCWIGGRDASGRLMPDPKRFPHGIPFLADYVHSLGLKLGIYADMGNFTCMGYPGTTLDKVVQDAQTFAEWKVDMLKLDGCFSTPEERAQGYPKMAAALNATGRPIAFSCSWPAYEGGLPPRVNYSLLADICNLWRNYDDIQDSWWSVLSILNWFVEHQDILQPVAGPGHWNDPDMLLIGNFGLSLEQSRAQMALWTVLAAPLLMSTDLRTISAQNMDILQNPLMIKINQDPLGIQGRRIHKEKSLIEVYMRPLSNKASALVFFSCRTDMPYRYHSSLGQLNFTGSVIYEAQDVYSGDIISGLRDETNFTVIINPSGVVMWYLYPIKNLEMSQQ
As to the kind of experiment: Inhibition of the enzyme alpha-N-acetylgalactosaminidase from chicken liver was determined at 1 mM concentration of the compound; No inhibition. As to conditions: Gallus gallus, target entry is the homologue from another species.

For a further test, the system named is Oryza sativa. As to the kind of experiment: Inhibition of the enzyme alpha-glucosidase (maltase) from rice was determined at 1 mM concentration of the compound; No inhibition.
Test [4] is described as follows: Inhibition of the enzyme Alpha-galactosidase from Aspergillus niger was determined at 1 mM concentration of the compound; No inhibition.
Test [5] can be described thus: Inhibition of the enzyme Alpha-galactosidase from Escherichia coli was determined at 1 mM concentration of the compound; No inhibition.
Test [6] is filed under the species Bos taurus. As to the kind of experiment: Inhibition of the enzyme beta-N-acetylglucosaminidase from bovine epididymis A was determined at 1 mM concentration of the compound; No inhibition.
The target in test [7] is T3, Tissue alpha-L-fucosidase (Homo sapiens) (UniProt P04066).
T3 sequence (whole entry): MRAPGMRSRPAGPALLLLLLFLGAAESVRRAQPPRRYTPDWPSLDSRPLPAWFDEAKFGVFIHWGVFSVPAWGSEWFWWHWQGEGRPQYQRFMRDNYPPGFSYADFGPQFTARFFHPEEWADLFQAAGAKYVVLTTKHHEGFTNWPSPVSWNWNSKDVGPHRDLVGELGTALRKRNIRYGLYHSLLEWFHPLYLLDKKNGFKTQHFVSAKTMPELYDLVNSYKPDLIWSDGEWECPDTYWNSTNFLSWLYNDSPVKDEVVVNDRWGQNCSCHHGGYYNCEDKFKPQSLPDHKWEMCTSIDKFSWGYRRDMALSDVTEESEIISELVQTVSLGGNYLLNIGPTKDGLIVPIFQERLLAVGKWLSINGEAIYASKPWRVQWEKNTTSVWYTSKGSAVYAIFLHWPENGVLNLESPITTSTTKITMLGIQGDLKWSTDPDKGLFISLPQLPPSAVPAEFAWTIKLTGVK
As to the kind of experiment: Inhibition of the enzyme alpha-L-fucosidase from human placenta was determined at 1 mM concentration of the compound; No inhibition.

Test [8] can be described thus: Inhibition of the enzyme Alpha-galactosidase from coffee beans was determined at 1 mM concentration of the compound; No inhibition. As to conditions: Coffea arabica.
For test [9], the system named is Saccharomyces cerevisiae. As to the kind of experiment: Inhibition of the enzyme alpha-glucosidase (isomaltase) from baker yeast was determined at 1 mM concentration of the compound; No inhibition.
A short description of test [10]: Inhibition of the enzyme amyloglucosidase from Rhizopus mold was determined at 1 mM concentration of the compound; No inhibition.
A further test relates to Prunus dulcis. As to the kind of experiment: Inhibition of the enzyme beta-glucosidase from almonds was determined at 1 mM concentration of the compound; No inhibition.
Test [11] has as its target T4, Beta-galactosidase (Aspergillus niger) (UniProt P29853).
T4 sequence (whole entry): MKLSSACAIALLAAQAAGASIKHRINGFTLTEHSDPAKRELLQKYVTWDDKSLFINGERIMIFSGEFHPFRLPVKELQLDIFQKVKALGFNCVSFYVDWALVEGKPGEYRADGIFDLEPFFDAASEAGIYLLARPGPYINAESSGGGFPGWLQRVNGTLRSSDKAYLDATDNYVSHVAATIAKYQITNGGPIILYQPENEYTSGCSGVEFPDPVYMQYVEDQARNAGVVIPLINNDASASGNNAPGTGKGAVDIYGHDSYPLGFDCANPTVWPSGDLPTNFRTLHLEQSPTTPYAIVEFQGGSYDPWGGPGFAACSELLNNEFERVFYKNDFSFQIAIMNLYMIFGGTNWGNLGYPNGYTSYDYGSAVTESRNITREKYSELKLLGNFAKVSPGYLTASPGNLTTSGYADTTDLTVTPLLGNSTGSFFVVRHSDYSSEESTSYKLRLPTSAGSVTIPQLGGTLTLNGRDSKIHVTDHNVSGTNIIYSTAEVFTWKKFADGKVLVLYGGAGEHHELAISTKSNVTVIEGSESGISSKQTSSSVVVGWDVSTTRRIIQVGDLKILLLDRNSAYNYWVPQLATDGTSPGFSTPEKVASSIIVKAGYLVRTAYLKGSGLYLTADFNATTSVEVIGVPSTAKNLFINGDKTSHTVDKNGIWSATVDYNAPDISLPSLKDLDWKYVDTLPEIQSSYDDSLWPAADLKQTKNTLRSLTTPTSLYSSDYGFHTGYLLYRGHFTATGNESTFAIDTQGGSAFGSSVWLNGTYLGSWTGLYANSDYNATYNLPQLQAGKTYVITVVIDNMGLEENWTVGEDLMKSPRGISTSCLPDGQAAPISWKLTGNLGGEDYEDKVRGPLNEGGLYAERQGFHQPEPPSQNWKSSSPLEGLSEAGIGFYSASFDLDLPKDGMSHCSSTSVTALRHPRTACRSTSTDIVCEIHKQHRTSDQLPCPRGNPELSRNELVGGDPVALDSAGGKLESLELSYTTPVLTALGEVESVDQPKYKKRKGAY
As to the kind of experiment: Inhibition of the enzyme beta-galactosidase from Aspergillus niger was determined at 1 mM concentration of the compound; No inhibition.

Test [12] is filed under the species Bos taurus. As to the kind of experiment: Inhibition of the enzyme beta-N-acetylglucosaminidase from bovine epididymis B was determined at 1 mM concentration of the compound; No inhibition.
The nature of test [13]: Inhibition of the enzyme beta-galactosidase from jack beans was determined at 1 mM concentration of the compound; No inhibition.
The next test has as its system Aspergillus niger. As to the kind of experiment: Inhibition of the enzyme beta-D-xylosidase from Aspergillus niger was determined at 1 mM concentration of the compound; No inhibition.
The nature of test [14]: Inhibition of the enzyme Beta-mannosidase from Helix pomatia was determined at 1 mM concentration of the compound; No inhibition.
Test [15] concerns the target Beta-galactosidase (Escherichia coli) (UniProt Q8VNN2). As to the kind of experiment: Inhibition of the enzyme beta-galactosidase from Escherichia coli was determined at 1 mM concentration of the compound; No inhibition.
The target in test [16] is Glucoamylase (Aspergillus niger) (UniProt P69328). As to the kind of experiment: Inhibition of the enzyme amyloglucosidase from Aspergillus niger was determined at 1 mM concentration of the compound; No inhibition.
Chain of Glucoamylase (Aspergillus niger) (P69328 whole entry): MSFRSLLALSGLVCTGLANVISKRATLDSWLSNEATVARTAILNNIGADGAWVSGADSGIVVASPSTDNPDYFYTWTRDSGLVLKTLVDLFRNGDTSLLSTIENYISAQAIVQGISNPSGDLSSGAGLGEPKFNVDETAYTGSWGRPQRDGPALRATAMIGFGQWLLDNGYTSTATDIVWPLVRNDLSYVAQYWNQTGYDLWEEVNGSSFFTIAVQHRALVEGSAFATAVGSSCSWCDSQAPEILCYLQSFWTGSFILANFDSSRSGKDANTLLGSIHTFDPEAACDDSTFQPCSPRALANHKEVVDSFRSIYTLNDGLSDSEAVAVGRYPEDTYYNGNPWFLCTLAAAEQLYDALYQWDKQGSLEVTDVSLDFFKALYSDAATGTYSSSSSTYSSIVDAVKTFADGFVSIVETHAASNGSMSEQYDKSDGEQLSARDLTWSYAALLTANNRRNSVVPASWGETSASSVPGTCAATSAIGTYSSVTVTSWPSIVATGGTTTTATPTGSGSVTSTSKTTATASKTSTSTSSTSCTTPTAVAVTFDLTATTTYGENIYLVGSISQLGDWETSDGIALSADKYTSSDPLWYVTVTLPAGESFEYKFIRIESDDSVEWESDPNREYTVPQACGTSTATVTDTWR
Test [17] has as its target T3, Tissue alpha-L-fucosidase (Homo sapiens). As to the kind of experiment: Inhibition of the enzyme alpha-L-fucosidase from bovine epididymis was determined at 1 mM concentration of the compound; No inhibition. As to conditions: Bos taurus, target entry is the homologue from another species.
Test [18] deals with Caldicellulosiruptor saccharolyticus. As to the kind of experiment: Inhibition of the enzyme beta-glucosidase from Caldocellum saccharolyticum was determined at 1 mM concentration of the compound; No inhibition.
Test [19] deals with Saccharomyces cerevisiae. As to the kind of experiment: Inhibition of the enzyme alpha-glucosidase (maltase) from yeast was determined at 1 mM concentration of the compound; No inhibition.
The nature of test [20]: Inhibition of the enzyme alpha-mannosidase from almonds was determined at 1 mM concentration of the compound; No inhibition.
The nature of test [21]: Inhibition of the enzyme alpha-mannosidase from almonds was determined at 1 mM concentration of the compound; Moderate inhibition.

Chain of Beta-galactosidase (Escherichia coli) (Q8VNN2 whole entry, looked up): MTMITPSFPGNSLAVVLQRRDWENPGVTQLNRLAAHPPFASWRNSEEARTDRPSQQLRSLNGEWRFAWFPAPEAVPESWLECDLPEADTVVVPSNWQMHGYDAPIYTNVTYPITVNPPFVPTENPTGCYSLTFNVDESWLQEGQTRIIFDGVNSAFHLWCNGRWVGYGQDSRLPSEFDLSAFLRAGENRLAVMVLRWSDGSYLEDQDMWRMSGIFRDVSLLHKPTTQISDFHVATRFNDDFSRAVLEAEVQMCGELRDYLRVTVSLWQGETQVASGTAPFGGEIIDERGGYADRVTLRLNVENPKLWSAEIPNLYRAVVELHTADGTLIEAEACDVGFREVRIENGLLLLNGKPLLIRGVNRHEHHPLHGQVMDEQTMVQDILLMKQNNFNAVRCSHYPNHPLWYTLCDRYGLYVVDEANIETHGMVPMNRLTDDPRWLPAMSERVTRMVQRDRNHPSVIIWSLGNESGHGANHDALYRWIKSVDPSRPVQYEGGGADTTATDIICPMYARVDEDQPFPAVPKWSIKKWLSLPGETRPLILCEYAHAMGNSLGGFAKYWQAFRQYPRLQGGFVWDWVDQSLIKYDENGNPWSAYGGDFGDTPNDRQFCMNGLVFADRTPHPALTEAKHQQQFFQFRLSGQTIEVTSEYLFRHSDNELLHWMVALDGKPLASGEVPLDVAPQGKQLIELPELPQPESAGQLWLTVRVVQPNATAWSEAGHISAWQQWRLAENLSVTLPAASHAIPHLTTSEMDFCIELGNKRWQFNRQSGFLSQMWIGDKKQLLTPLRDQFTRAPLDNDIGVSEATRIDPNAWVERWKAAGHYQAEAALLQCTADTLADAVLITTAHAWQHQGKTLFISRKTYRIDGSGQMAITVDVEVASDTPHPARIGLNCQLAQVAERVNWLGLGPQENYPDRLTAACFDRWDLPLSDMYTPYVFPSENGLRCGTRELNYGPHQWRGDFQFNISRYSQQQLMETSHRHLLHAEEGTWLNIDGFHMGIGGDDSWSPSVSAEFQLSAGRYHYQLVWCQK

As a reminder, the inhibition is the change of the read-out against control, counted positive when it falls. For `OCC1O[C@H](O)C(O)[C@@H]([C@H](O)C2NCC(O)C2O)C1O` (stereo partly drawn), the inhibition entry (in the test on jack; in test [1]; in test [2]; in test [3]; in the test with Oryza sativa; in test [4]) was “inactive” each time. Further, the inhibition entry (in [5]; in the test listed under Bos taurus [6]; in test [7]; in test [8]; in the test with Saccharomyces cerevisiae [9]; in [10]) was “inactive” each time. Besides, the inhibition entry (in the test on Prunus dulcis; in test [11]; in the test filed under Bos taurus [12]; in [13]; with Aspergillus niger; in [14]) was “inactive” each time. Moreover, the inhibition entry (in [15]; in test [16]; in test [17]; in [18]; in the test on Saccharomyces cerevisiae [19]; in test [20]) was “inactive” in each case.

As for `OCC1O[C@H](O)[C@H](O)[C@@H]([C@H](O)C2NCC(O)C2O)C1O` (stereo partly drawn), the inhibition in test [21] is 27%. Besides, the inhibition result (in the test on jack; in [1]; in test [2]; in test [3]; in the test with Oryza sativa; in [4]) was “inactive” in each case. Also, the inhibition entry (in test [5]; in the test filed under Bos taurus [6]; in test [7]; in test [8]; in the test with Saccharomyces cerevisiae [9]; in [10]) was “inactive” in each case. Besides, the inhibition entry (in the test with Prunus dulcis; in test [11]; in the test filed under Bos taurus [12]; in [13]; in the test with Aspergillus niger; in [14]) was “inactive” throughout. Besides, the inhibition entry (in [15]; in [16]; in [17]; in [18]; in the test with Saccharomyces cerevisiae [19]) was “inactive” throughout.
